Holding throughout (assay type): ADME, organism-based
Data set [1] has as its system Triticum aestivum. Description: Drug level in Bavarian Triticum aestivum (wheat) at 10 to 100 ug/kg after 1 day by LC-MS analysis. To be noted: in vivo, 24 h.
Data set [2] has as its system Triticum aestivum. Nature of the data set: Drug recovery in Bavarian Triticum aestivum (wheat) samples at 100 ug/kg after 1 day by LC-MS analysis. To be noted: in vivo, 0.1 mg/kg, 24 h.
Data set [3] concerns Triticum aestivum. Nature of the data set: Drug recovery in BavarianTriticum aestivum (wheat) samples at 10 ug/kg after 1 day by LC-MS analysis. To be noted: in vivo, 0.01 mg/kg, 24 h.

`C[C@H]1CCCC(=O)CCC/C=C/c2cc(O)cc(O)c2C(=O)O1` [ZEARALENONE] showed a Drug uptake with Triticum aestivum [1] of 11 µg/kg. Besides, the values for the Drug recovery with Triticum aestivum [2] and in the data set with Triticum aestivum [3] were 89% and 32%, respectively.

In the data set with Triticum aestivum [1], `C[C@H]1CCCC(=O)CCC/C=C/c2cc(O[C@@H]3O[C@H](CO)[C@@H](O)[C@H](O)[C@H]3O)cc(O)c2C(=O)O1` [Zearalenone-4-beta-D-glucopyranoside] showed a Drug uptake of 17 µg/kg. Further, the Drug recovery with Triticum aestivum [2] is 69%; with Triticum aestivum [3], 67%.

For the origin of these results see ChEMBL document CHEMBL3045413, “Occurrence of zearalenone-4-beta-D-glucopyranoside in wheat” (J Agric Food Chem, 2002).
